From patent publication US20250041303A1, “COMBINATION THERAPY FOR CANCER TREATMENT” (INSTITUTE FOR CANCER RESEARCH D/B/A THE RESEARCH INSTITUTE …, priority 2021, published 2025)
Each block holds one molecule with its values, some of them ahead of it.

Tests used:
[1] = test system: A1847 Parental or dBET6-R cells; experiment: Western blot for cross-resistance to other PROTACs; type: cell-based; details: A1847 dBET6-R vs parental; 1 μM, 24 hours
CDK9 [2] = target: T1, CDK9 (Homo sapiens, UniProt P50750); experiment: Western blot of CDK9 degradation, A1847 parental vs Thal-R cells; type: cell-based; details: 24 hours
Procedure: (§1) Samples were harvested in MIB lysis buffer (50 mM HEPES (pH 7.5), 0.5% Triton X-100, 150 mM NaCl, 1 mM EDTA, 1 mM EGTA, 10 mM sodium fluoride, 2.5 mM sodium orthovanadate, 1× protease inhibitor cocktail (Roche), and 1% each of phosphatase inhibitor cocktails 2 and 3 (Sigma)). Particulate was removed by centrifugation of lysates at 21,000 rpm for 15 minutes at 4° C. Lysates were subjected to SDS-PAGE chromatography and transferred to PVDF membranes before western blotting with primary antibodies. […] Secondary HRP-anti-rabbit and HRP-anti-mouse were obtained from ThermoFisher Scientific. SuperSignal West Pico and Femto Chemiluminescent Substrates (Thermo) were used to visualize blots.

CDK9 [3] = target: T1, CDK9; experiment: Western blot of CDK9 degradation in DLD-1 cells; type: cell-based; parameters: endogenous in cells; host or cells: DLD-1; details: 4 hours
Procedure: as §1

[4] = test system: A1847 and SUM159 parental and degrader-resistant cells; experiment: CellTiter-Glo cell viability, parental vs degrader-resistant cells
[5] = test system: HCT-15, DLD-1 and CAKI-1 cells (MDR1 overexpressing); experiment: CellTiter-Glo cell viability of MDR1 overexpressing vs low MDR1 cancer cell lines; details: HCT-15, DLD-1, CAKI-1 vs A1847, SUM159, MOLT4; escalating doses, 5 days
MDR1 (ABCB1) = experiment: Single-run proteomics (LC-MS/MS, label-free quantitation) of degrader-resistant cells; type: cell-based, human; details: A1847 cells chronically exposed to the degrader (degrader-R) vs parental
Procedure: To determine changes in cells chronically exposed to BET or CDK9 PROTACs, we performed single-run proteome analysis as previously described (Lai et al., Front. Oncol., 2020, 10, 2336). Briefly, WT or PROTAC-R cells were lysed in 50 mM HEPES pH 8.0+4% SDS, and 100 μg of proteins were digested using LysC and trypsin. Digested peptides were isolated using C-18 and PGC columns, then dried and cleaned with ethyl acetate. Three […] peptides were analyzed using LC-MS/MS. MaxQuant normalized LFQ values were imported into Perseus software (1.6.2.3) and filtered in the following manner: kinases identified by site only were removed, reverse, or potential contaminant were removed then filtered for kinases identified by >1 unique peptide. Protein LFQ values were log 2 transformed, filtered for a minimum valid number of 3, normalized using Z-scores, annotated, and subjected to a Student's t-test with comparing […]. […]
Proteolytic peptides were resuspended in 0.1% formic acid and separated with a Thermo Scientific RSLC nano Ultimate 3000 LC on a Thermo Scientific Easy-Spray C18 PepMap 75 μm×50 cm C-18 2 μm column. […] Eluted peptides were analyzed by Thermo Scientific Q Exactive or Q Exactive plus mass spectrometers utilizing a top 15 methodology in which the 15 most intense peptide precursor ions were subjected to fragmentation. […]
Raw data analysis of LFQ experiments was performed using MaxQuant software 1.6.1.0 and searched using Andromeda 1.5.6.0 against the Swiss-Prot human protein database (downloaded on Apr. 24, 2019, 20402 entries). […] LFQ quantitation was performed using MaxQuant with the following parameters; LFQ minimum ratio count: Global parameters for protein quantitation were as follows: label minimum ratio count: 1, peptides used for quantitation: unique, only use modified proteins selected and with normalized average ratio estimation selected. Match between runs was employed for LFQ quantitation and the significance threshold of the ion score was calculated based on a false discovery rate of <1%.

KRASG12C = target: T2, KRASG12C (Homo sapiens, UniProt P01116, G12C); experiment: Western blot of KRASG12C and effector signaling in SW1463 cells; type: cell-based
T2 construct: endogenous in cells; host or cells: SW1463
Procedure: as §1

[6] = test system: SW1463 or SW837 KRASG12C cells; experiment: Colony formation assay (14 days) in KRASG12C CRC cells; details: 1 μM
SW1463 cells = experiment: CellTiter-Glo viability with Bliss drug synergy analysis in SW1463 cells; type: cell-based
MDR1 = MDR1 (Homo sapiens, UniProt P08183); experiment: Rhodamine 123 efflux assay in degrader-resistant cells; type: cell-based; parameters: endogenous in cells; host or cells: A1847 parental, dBET6-R, Thal-R; SUM159 parental, MZ1-R; details: A1847 dBET6-R, Thal-R or MZ1-R SUM159 cells compared to parental cells
Procedure: Efflux assay was performed according to manufacturer's protocol (Millipore Sigma #ECM910). Cells were resuspended in cold efflux buffer and incubated with Rhodamine 123 for 1 hour on ice. Cells were centrifuged and treated in warm efflux buffer with DMSO or drug for 30-60 minutes, washed with cold PBS, and effluxed dye was quantified with a plate reader at an excitation wavelength of 485 nm and an emission wavelength of 530 nm.

SW837 cells = experiment: CellTiter-Glo viability with Bliss drug synergy analysis in SW837 cells
[7] = test system: BET proteins (BRD2, BRD3 or BRD4); experiment: Western blot of BET protein degradation, parental vs degrader-resistant cells; type: cell-based; details: tariquidar 0.1 μM, 24 hours; A1847 dBET6-R, SUM159 MZ1-R (maintained in PROTAC)
Procedure: as §1

A1847 or SUM159 cells = experiment: Colony formation assay (14 days, crystal violet); details: SUM159 cells expressing Flag-MDR1, MZ1 0.1 μM, with or without tariquidar 0.1 μM
[8] = test system: OVCAR3, HCT116, and MOLT4 cells; experiment: CellTiter-Glo cell viability, parental vs MZ1 chronically exposed cells; details: MZ1-R OVCAR3 and HCT116 vs parental
[9] = SW1463, lapatinib 5 μM or tariquidar 0.01 μM, 48 hours

T1 sequence (P50750 whole entry): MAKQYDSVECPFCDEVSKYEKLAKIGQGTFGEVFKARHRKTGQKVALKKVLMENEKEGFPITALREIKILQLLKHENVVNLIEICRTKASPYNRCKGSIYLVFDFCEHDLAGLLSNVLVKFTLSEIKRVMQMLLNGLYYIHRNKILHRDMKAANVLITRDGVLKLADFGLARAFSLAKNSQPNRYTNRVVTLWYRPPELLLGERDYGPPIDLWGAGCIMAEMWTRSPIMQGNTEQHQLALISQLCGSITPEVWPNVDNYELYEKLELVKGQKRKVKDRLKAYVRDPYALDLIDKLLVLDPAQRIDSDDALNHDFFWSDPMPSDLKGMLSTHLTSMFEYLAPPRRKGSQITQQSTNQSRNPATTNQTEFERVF
T1 sequence (O60563 whole entry partner): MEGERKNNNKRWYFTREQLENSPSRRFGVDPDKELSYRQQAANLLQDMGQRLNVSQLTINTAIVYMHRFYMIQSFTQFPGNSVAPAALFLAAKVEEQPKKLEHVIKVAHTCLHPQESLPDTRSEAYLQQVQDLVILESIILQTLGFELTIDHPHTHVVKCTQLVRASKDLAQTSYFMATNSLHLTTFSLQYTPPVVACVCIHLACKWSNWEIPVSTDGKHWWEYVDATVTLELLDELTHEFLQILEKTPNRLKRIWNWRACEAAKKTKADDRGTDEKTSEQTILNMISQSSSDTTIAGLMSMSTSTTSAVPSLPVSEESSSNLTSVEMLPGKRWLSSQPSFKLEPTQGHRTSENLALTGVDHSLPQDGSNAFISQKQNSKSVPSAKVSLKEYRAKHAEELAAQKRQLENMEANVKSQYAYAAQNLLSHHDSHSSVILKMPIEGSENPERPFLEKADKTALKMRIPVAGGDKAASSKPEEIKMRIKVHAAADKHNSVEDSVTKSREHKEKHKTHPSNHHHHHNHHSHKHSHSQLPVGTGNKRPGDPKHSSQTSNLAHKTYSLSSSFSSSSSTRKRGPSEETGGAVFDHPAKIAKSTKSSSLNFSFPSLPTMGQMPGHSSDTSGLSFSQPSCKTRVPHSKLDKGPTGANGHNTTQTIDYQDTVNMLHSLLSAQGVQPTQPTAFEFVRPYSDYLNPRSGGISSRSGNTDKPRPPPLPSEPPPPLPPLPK
MDR1, sequence (P08183 whole entry): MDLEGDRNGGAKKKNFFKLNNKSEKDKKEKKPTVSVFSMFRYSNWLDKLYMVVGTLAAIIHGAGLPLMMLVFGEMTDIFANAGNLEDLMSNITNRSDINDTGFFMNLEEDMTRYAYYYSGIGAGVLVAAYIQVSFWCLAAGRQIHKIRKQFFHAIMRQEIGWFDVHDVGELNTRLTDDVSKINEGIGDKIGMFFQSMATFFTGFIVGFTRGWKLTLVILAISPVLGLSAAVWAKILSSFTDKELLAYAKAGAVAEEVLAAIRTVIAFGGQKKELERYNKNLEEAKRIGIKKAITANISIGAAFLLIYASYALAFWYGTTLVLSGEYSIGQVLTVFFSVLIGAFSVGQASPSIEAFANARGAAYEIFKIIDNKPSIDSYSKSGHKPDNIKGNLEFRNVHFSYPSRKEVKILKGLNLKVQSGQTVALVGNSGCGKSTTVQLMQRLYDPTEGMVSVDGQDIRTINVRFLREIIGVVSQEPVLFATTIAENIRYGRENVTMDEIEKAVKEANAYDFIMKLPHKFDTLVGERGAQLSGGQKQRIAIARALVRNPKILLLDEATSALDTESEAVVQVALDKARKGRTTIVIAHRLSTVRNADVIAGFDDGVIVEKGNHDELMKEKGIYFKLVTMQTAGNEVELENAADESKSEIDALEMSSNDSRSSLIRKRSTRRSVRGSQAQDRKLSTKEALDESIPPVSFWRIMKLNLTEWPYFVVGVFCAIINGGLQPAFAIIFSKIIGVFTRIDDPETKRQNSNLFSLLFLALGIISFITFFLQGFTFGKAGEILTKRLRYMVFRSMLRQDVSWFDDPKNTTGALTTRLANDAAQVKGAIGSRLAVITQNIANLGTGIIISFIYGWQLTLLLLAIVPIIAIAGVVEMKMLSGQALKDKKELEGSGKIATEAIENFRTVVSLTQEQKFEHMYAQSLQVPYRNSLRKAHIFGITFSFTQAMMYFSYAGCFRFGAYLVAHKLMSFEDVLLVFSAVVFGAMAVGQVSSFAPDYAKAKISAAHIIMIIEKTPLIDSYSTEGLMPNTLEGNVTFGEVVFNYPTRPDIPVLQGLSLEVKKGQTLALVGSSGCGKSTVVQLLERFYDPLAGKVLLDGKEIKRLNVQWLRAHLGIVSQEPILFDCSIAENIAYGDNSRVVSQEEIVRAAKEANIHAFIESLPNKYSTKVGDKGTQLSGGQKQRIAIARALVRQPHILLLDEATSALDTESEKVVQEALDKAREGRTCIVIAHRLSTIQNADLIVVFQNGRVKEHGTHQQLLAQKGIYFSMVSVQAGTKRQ

degradation efficiency of CDK9 on co-treatment with tariquidar (CDK9 [3]; DLD-1, increasing doses plus tariquidar 0.1 μM): improved the degradation efficiency
Structure (SMILES): CC(C)(C)c1cnc(CSc2cnc(NC(=O)C3CCN(CC(=O)NCCOCCOCCOCCNc4cccc5c4C(=O)N(C4CCC(=O)NC4=O)C5=O)CC3)s2)o1 (stereo not shown) [Thal SNS 032]
cross-resistance to PROTACs targeting other proteins [1]: cross-resistant
CDK9 protein levels and phosphorylation of RNA polymerase (S2) (CDK9 [2]; chronically exposed A1847 cells vs parental, increasing doses): did not inhibit cell viability or reduce CDK9 protein levels
reduction of intended degrader target (CDK9) (CDK9 [3]; DLD-1, single agent, escalating doses, vs A1847 or MOLT4): did not reduce the intended degrader target to the extent observed with degrader-sensitive A1847 or MOLT4 cells
acquired resistance (cell viability dose-response) ([4]; A1847 parental vs chronically exposed cells, escalating doses, 5 days): acquire resistance
cell viability of MDR1 overexpressing cells [5]: did not reduce cell viability to the extent of cancer cell lines expressing low or no detectable MDR1 protein
MDR1 protein levels upregulated relative to parental cell lines by LFQ analysis (MDR1 (ABCB1)): ~2.5 fold

KRASG12C protein levels, single agent (KRASG12C; SW1463 cells, 1 μM): had no impact on KRASG12C protein levels
Structure (SMILES): C=C(F)C(=O)N1CCN(c2nc(OC[C@@H]3CCCN3CCCOCCC(=O)N[C@H](C(=O)N3C[C@H](O)C[C@H]3C(=O)NCc3ccc(-c4scnc4C)cc3)C(C)(C)C)nc3c2CCN(c2cccc4cccc(Cl)c24)C3)C[C@@H]1CC#N [LC-2]
sensitivity (colony formation) [6]: intrinsic resistance

MDR1 drug efflux pump activity (efflux of Rhodamine 123) (MDR1): reduced MDR1 drug efflux pump activity
phosphorylation of MEK and ERK on combining with LC-2 (KRASG12C; [9]): reduced phosphorylation of MEK and ERK
Structure (SMILES): COc1cc2c(cc1OC)CN(CCc1ccc(NC(=O)c3cc(OC)c(OC)cc3NC(=O)c3cnc4ccccc4c3)cc1)CC2 [tariquidar]
drug synergy with LC-2 (SW1463 cells): marginal synergy
drug synergy with LC-2 (SW837 cells): marginal synergy
degradation of CDK9 in degrader-resistant cells on MDR1 inhibition (CDK9 [2]; tariquidar 0.1 μM, A1847 Thal-R): restored degradation of BET proteins or CDK9
PROTAC-mediated degradation of KRASG12C on combining with LC-2 (KRASG12C; [9]): improved PROTAC-mediated degradation of KRASG12C reducing protein levels
degradation of BET proteins in degrader-resistant cells on MDR1 inhibition [7]: restored degradation of BET proteins or CDK9
colony formation with forced expression of Flag-MDR1 (A1847 or SUM159 cells): could be blocked by tariquidar-treatment
sensitivity of degrader-resistant cells vs parental cells (cell viability) ([4]; increasing concentrations, A1847 dBET6-R, Thal-R, MZ1-R and SUM159 MZ1-R): more sensitive
sensitivity of MZ1-resistant cells (cell viability) [8]: increased sensitivity
